Laboratory results taken from BigSolDB 2.1.

NC(N)=C([N+](=O)[O-])[N+](=O)[O-]
solubility (mole fraction)
Details | 293.15 K | 298.15 K | 303.15 K | 308.15 K | 313.15 K | 318.15 K | 323.15 K | 328.15 K | 333.15 K
in 2-butanone | 0.00503 | 0.0056 | 0.00613 | 0.00659 | 0.00714 | 0.00782 | 0.00837 | 0.00899 | 0.00957
in DMSO | 0.172 | 0.177 | 0.181 | 0.184 | 0.189 | 0.193 | 0.197 | 0.201 | 0.206
in MIBK | 0.00278 | 0.00327 | 0.00358 | 0.00402 | 0.00428 | 0.00467 | 0.00512 | 0.00553 | 0.006
in cyclopentanone | 0.00715 | 0.00767 | 0.0083 | 0.0089 | 0.00948 | 0.0103 | 0.011 | 0.0119 | 0.0128
